Biological target: T1, Myosin-IIIb (Homo sapiens, UniProt Q8WXR4)
T1 sequence (Q8WXR4 whole entry): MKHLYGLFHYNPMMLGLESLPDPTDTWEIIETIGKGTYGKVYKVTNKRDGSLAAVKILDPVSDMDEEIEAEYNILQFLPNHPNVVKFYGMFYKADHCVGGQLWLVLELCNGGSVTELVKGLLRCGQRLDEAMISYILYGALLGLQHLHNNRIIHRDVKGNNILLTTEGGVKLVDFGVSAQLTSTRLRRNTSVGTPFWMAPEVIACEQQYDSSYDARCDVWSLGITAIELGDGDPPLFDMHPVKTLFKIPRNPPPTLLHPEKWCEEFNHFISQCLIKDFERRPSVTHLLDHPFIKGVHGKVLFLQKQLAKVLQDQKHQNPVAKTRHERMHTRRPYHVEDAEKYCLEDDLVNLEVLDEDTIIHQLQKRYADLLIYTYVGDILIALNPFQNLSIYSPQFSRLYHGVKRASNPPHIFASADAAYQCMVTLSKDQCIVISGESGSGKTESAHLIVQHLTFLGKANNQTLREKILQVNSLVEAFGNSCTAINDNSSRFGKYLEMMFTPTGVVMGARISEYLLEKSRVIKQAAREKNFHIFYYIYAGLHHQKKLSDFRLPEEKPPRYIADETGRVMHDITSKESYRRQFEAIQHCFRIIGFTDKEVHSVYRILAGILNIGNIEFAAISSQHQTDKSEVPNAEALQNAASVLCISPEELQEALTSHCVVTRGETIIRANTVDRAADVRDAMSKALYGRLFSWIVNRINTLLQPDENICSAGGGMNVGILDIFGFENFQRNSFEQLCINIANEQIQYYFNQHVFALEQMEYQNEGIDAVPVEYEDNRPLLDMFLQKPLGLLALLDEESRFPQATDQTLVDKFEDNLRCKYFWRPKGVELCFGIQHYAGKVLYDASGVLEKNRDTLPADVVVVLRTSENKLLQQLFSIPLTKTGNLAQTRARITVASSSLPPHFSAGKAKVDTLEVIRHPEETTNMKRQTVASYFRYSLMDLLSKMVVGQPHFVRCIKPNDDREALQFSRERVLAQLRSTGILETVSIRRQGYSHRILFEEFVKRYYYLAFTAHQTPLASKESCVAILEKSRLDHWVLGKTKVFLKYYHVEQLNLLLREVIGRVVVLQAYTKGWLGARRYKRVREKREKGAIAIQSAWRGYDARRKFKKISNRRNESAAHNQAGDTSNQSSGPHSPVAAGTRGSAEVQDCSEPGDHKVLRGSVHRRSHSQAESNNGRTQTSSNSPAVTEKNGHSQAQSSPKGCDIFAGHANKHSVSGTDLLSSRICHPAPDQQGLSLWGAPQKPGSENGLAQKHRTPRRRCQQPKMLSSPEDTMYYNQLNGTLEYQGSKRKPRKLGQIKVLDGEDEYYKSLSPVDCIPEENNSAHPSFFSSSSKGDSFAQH
Assay: Binding affinity to human MYO3B assessed as dissociation constant by KdELECT Discover assay

Kd: > 30 µM
SMILES: CN1CCN(C(=O)c2ccc3cc(CCNc4ccnc5ccc(C#N)cc45)ccc3c2)CC1

Reference: BindingDB's records for doi:10.1021/acs.jmedchem.1c01951 (University of South Carolina, 2022)
